Measurements as given in US7524836B2, “Nitrooxyderivative steroidal compounds” (Nicox S.A., priority 2001, dated 2009).
Read-outs that look alike come from different tables or passages of the source.

Key:
[1] = tested on: rats treated or not treated with L-NAME; parameters: species or system rat (Long Evans); details: rat, in vivo, ip; for GPT var. %: 100 mg/kg
Method: In those groups of rats treated, respectively, with ursodesoxycholic acid and chenodeoxycholic acid and thereof corresponding compounds according to the present invention, GPT is determined.
At the end of the four weeks access to water is prevented and after 24 hours the animals are sacrificed.
1st group receiving L-NAME (group d-comparative) administered at the same time with 100 mg/Kg (0.25 mmoles/Kg) of ursodesoxycholic acid+49.5 mg/Kg (0.25 mmoles/Kg) of ferulic acid in the same above carrier, • c. 2nd group receiving L-NAME (group e) administered with 175 mg/Kg (0.25 mmoles/Kg) of the ursodesoxycholic derivative according to the invention (ref. ex. 1) in the same above carrier.

[2] = tested on: rats treated or not treated with L-NAME; details: rat, in vivo, ip
[3] = Test 4: inhibition of radical production from DPPH; details: tested substance 10^-4 M (100 μM) in methanol, 30 minutes, absorbance at 517 nm
Method: [drawing 21] • wherein test 4 is the following: it is an analytical determination carried out by adding portions of methanol solutions of the precursor of B or B1 at a 10^−4 M concentration, to a methanol solution of DPPH (2,2-diphenyl-1-picryl hydrazyl-free radical); after having maintained the solution at room temperature away from light for 30 minutes, it is read the absorbance at the wave length of 517 nm of the test solution and of a solution containing only DPPH in the same amount as in the test solution; and then the inhibition induced by the precursor towards radical production by DPPH is calculated as a percentage by means of the following formula: (1−AS/AC)×100 wherein AS and AC are respectively the absorbance values of the solution containing the test compound+DPPH and that of the solution containing only DPPH; the acceptance criterium of the compounds according to this test is the following: test 4 is met by B or B1 precursor compounds if the inhibition percentage as above defined is higher than or equal to 50%;
Test 4 is a […] test which affords to establish whether the orecursors of B or B1 inhibit the production of radicals from DPPH (2,2-diphenyl-1-picryl-hydrazyl) (M. S. Nenseter et Al., Atheroscler. Thromb. 15, 1338-1344, 1995). 100 μM solutions in methanol of the tested substances are prepared, and an aliquot of each of said solutions is added to a DPPH solution in methanol […]. After having stored the solutions at room temperature away from light for 30 minutes, their absorbances are read at the wave length of 517 nm, together with that of the corresponding DPPH solution at the same concentration. The absorbance decrease with respect to that of the solution of DPPH at the same concentration of the test solutions is determined. The effectiveness of the tested compound in inhibiting formation of radicals by DPPH is expressed by the following formula: (1−AS/AC)×100 wherein AS and AC are respectively the absorbance values of the solution containing the test compound together with DPPH and of the solution containing only DPPH; the compounds precursor of B or B1 meet test 4 when the inhibition percentage of radical production from DPPH, expressed as a percentage according to the above equation, is higher than or equal co 50% at the indicated concentration (10^−4 M).
The method is based on a colorimetric test in which DPPH (2,2-diphenyl-1-picryl-hydrazyl) is used as the compound-forming radicals (M. S. Nenseter et Al., Atheroscler. Thromb. 15, 1338-1344, 1995).
Solutions in methanol of the tested substances at a final concentration 100 μM are initially prepared. 0.1 ml of each of these solutions are added to aliquots of 1 ml of a methanol solution […] of DPPH and then the final volume is brought to 1.5 ml. After having stored the solutions at room temperature away from light for 30 minutes, the absorbance at the wave length of […] is read. It is determined the absorbance decrease with respect to the absorbance of a solution containing the same concentration of DPPH.
The efficacy of the test compound to inhibit the production of radicals, otherwise said antiradical activity, is expressed by the following formula: (1−AS/AC)×100 wherein AS and AC are, respectively, the absorbance values of the solution containing the test compound together+DPPH and of the solution containing only DPPH. […]

[4] = Test 5: inhibition of radical production from Fe^II (desoxyribose degradation); details: 10^-4 M methanolic solution, 37° C. for one hour, absorbance at 532 nm
Method: […]
Test 5 is a […] test wherein 0.1 ml aliquots of 10^−4 M methanolic solutions of the tested products are added to test tubes containing a solution formed by 0.2 ml of 2 mM desoxyribose, 0.4 ml of phosphate buffer pH 7.4 100 mM and 0.1 ml of 1 mM Fe^II(NH4)2(SO4)2 in 2 mM HCl. […] A pink coloration is developed the intensity of which is proportional to the quantity of desoxyribose undergone to radical oxidative degradation. The solutions are cooled at room temperature and their absorbances are read at 532 nm against the blank. The inhibition induced by the precursor of B or B1 or C=-TC-Y—H in comparison with the radical production by Fe^II is determined by means of the following formula: (1−AS/AC)×100 wherein AS and AC are respectively the absorbance values of the solution containing the tested compound+the iron salt and that of the solution containing only the iron salt, the compound meets test 5 when the inhibition percentage of radical production as above defined from the precursor of B or B1 or C=-TC-Y—H is higher than or equal to 50%. […]

COc1cc(/C=C/C(=O)OCCCCO[N+](=O)[O-])ccc1OC(=O)CC[C@@H](C)[C@H]1CCC2C3C(CC[C@@]21C)[C@@]1(C)CC[C@@H](O)C[C@H]1C[C@H]3O (stereo partly drawn) [Example 2, 3-[4-[(3α,5β,7α)-3,7-dihydroxycolan-24-oiloxy]-3-methoxyphenyl]-2-propenoic acid 4-nitroxybutyl ester]
GPT var. % [1]: 105%

CC(=O)N[C@@H](CSC(=O)CCCO[N+](=O)[O-])C(=O)OCC(=O)[C@@]1(O)CC[C@H]2[C@@H]3CCC4=CC(=O)CC[C@]4(C)[C@H]3[C@@H](O)C[C@@]21C [Example 4, (11β)-11,17-Dihydroxy-21[N-acetyl-S-(4-nitroxybutyroyl)cysteinyloxy]-pregn-4-ene-3,20-dione]
Blood pressure variation % ([2]; 10 mg/kg): 98%

N[C@@H](CS)C(=O)O [Cysteine]
% inhibition radical production from DPPH ([3]; 100 µM): 100%

C[C@]12C=CC(=O)C=C1CC[C@@H]1[C@@H]2[C@@H](O)C[C@@]2(C)[C@H]1CC[C@]2(O)C(=O)CO [prednisolone]
Blood pressure variation % ([2]; 10 mg/kg): 119%

COc1cc(/C=C/C(=O)OCCCCO[N+](=O)[O-])ccc1OC(=O)CC[C@@H](C)[C@H]1CCC2C3C(CC[C@@]21C)[C@@]1(C)CC[C@@H](O)C[C@H]1C[C@@H]3O (stereo partly drawn) [Example 1, 3-[4-[(3α,5β,7β)-3,7-dihydroxycolan-24-oiloxy]-3-methoxyphenyl]-2-propenoic acid 4-nitroxybutyl ester]
GPT var. % [1]: 103% | GPT variation % ([1]; 175 mg/kg): 123%

O=C(O)c1cc(O)ccc1O [Gentisic acid]
% inhibition radical production from DPPH ([3]; 100 µM): 80%

C[C@H](CCC(=O)O)[C@H]1CC[C@H]2[C@@H]3[C@H](O)C[C@@H]4C[C@H](O)CC[C@]4(C)[C@H]3CC[C@]12C [chenodeoxycholic acid]
GPT var. % [1]: 150%

COc1cc(/C=C/C(=O)O)ccc1O [Ferulic acid]
% inhibition radical production from DPPH ([3]; 100 µM): 100%

C[C@H](CCC(=O)O)[C@H]1CC[C@H]2[C@@H]3[C@@H](O)C[C@@H]4C[C@H](O)CC[C@]4(C)[C@H]3CC[C@]12C [ursodesoxycholic acid]
GPT var. % [1]: 130%

CC(=O)N[C@@H](CSC(=O)CCCO[N+](=O)[O-])C(=O)OCC(=O)[C@@]1(O)[C@H](C)C[C@H]2[C@@H]3CCC4=CC(=O)C=C[C@]4(C)[C@@]3(F)[C@@H](O)C[C@@]21C [Example 5, (11β,16α)-9-Fluoro-11,17-dihydroxy-21[N-acetyl-S-(4-nitroxybutyroyl)cysteinyloxy]-16-methylpregn-1,4-diene-3,20-dione]
Blood pressure variation % ([2]; 5 mg/kg): 103% | Blood pressure variation % ([2]; 42.5 mg/kg): 125%

O=C(O)C1CSCN1 (stereo not drawn) [4-thiazolidin carboxylic acid]
% inhibition radical production from DPPH ([3]; 100 µM): does not inhibit | % Radical Inhibition from Fe^II [4]: 100%

CC(=O)N[C@@H](CS)C(=O)O [N-acetylcysteine]
% inhibition radical production from DPPH [3]: 100%

C[C@@H]1C[C@H]2[C@@H]3CCC4=CC(=O)C=C[C@]4(C)[C@@]3(F)[C@@H](O)C[C@]2(C)[C@@]1(O)C(=O)CO [dexamethasone]
Blood pressure variation % ([2]; 5 mg/kg): 125%

CC(=O)N[C@@H](CSC(=O)CCCO[N+](=O)[O-])C(=O)OCC(=O)[C@@]1(O)CC[C@H]2[C@@H]3CCC4=CC(=O)C=C[C@]4(C)[C@H]3[C@@H](O)C[C@@]21C [Example 3, (11β)-11,17-dihydroxy-21[N-acetyl-S-(4-nitroxybutyroyl)cysteinyloxy]-pregn-1,4-diene-3,20-dione]
Blood pressure variation % ([2]; 10 mg/kg): 102%

C[C@]12CCC(=O)C=C1CC[C@@H]1[C@@H]2[C@@H](O)C[C@@]2(C)[C@H]1CC[C@]2(O)C(=O)CO [hydrocortisone]
Blood pressure variation % ([2]; 10 mg/kg): 115%
